According to patent publication US5442065A, “Synthesis of tetrahydroquinoline enediyne core analogs of dynemicin” (Board of Regents, The University of Texas System, priority 1993, dated 1995):

Tested on: M109 tumor cells
Experiment: M109 solid tumor assay, five injections every two days (compared with neocarzinostatin and esperamicin A1)
Assay type: in vivo, female mice
Conditions: for T/C value: reference compounds, dose not given; for lifespan and tumor growth delay (in words): standard compounds, solid tumor
Protocol: This assay involves development of a solid tumor in a mouse by injection of M109 tumor cells under the skin of the animal. Solid tumors, typically elliptical in shape, rapidly develop on the flank of the mouse at the site of injection. Progress of the tumor is determined by its size which is measured across each axis of the elongated mass. Straightforward computations of tumor volume combined with an assumed density of 1 g per cc yields a weight estimate which is accepted as an indication of the progress of tumor growth. Increase in lifespan (T/C values) of the animal and delay in tumor growth (T-C) to reach a predetermined size (typically measured as weight of the tumor) are generally accepted by those of skill in the art as endpoint parameters. […] In the particular M109 assay described and used to test the novel dynemicin analogs, the median time to establish a baseline tumor burden (arbitrarily set at 1 g tumor) was 4 days.
A standard M109 solid tumor assay was set up to compare compound 5582 and 4229 with neocarzinostatin and esperamicin A1. Female mice were injected subcutaneously with 0.1 mL of a 0.2% brei of M109 tumor cells, prepared from 2 g tumor per 100 mL PBS (phosphate buffered saline).
In another test, compounds 5582 and 4229 were evaluated in mice implanted with M109 on a 5 injection per day every two days schedule beginning on day 1 post implant and compared with SC tumored mice.

Molecule	T/C value [days]	lifespan and tumor growth delay (in words)
esperamicin A1	11	increased lifespan and delay in tumor growth
neocarzinostatin: clinically tested compound; positive reference compound (protein, UniProt P0A3R9 35-147, looked up, enediyne chromophore) Neocarzinostatin: AAPTATVTPSSGLSDGTVVKVAGAGLQAGTAYDVGQCAWVDTGVLACNPADFSSVTADANGSASTSLTVRRSFEGFLFDGTRWGTVDCTTAACQVGLSDAAGNGPEGVAISFN	19.3	increased lifespan and delay in tumor growth
